Series [1] in a line: Prodrug activation in simulated gastric fluid assessed as dexibuprofen regeneration rate at 10 mg by HPLC analysis. Particulars: in vitro; call rule not given here.
The nature of series [2]: Half life in PBS at pH 7.4 by spectrophotometric analysis. Format: ADME.
Series [3] in a line: Half life in 80% Homo sapiens (human) plasma at pH 7.4 at 10 mg. Conditions: 80% human plasma. It is filed as ADME, cell-free.
Series [4] can be described thus: Solubility of the compound in chloroform at 5 mg. Format: physicochemical.
The nature of series [5]: Solubility of the compound in ethyl acetate at 5 mg. It is filed as physicochemical.
Series [6] in a line: Solubility of the compound in DMF at 5 mg. It is filed as physicochemical.
Series [7] is described as follows: Solubility of the compound in ethanol at 5 mg. Format: physicochemical.
A short description of series [8]: Solubility of the compound in 0.1 N HCl at 5 mg. It is filed as physicochemical. Conditions: buffer.
The nature of series [9]: Solubility of the compound in 0.1 N NaOH at 5 mg. Format: physicochemical.
Series [10] in a line: Protein binding to 6% egg albumin at 20 ug/ml. Particulars: read-out: PPB (converted).
Series [11] in a line: Solubility of the compound in DMF. Format: physicochemical.
The nature of series [12]: Solubility of the compound in chloroform. Format: physicochemical.
Series [13] can be described thus: Solubility of the compound in ethanol. Format: physicochemical.
Series [14] is described as follows: Solubility of the compound in ethyl acetate. Format: physicochemical.
A short description of series [15]: Solubility of the compound in 0.1 N HCl. Conditions: buffer. It is filed as physicochemical.
The nature of series [16]: Solubility of the compound in 0.1 N NaOH. Format: physicochemical.

Regarding `CC(C)Cc1ccc(C(C)C(=O)OCc2ccccc2)cc1` (stereo unspecified), the Drug metabolism result in [1] was “Not Active”. Further, the half-life in series [2] came out at 2.1 h; in series [3], 0.65 h. In addition, the solubility entry is recorded as “soluble” in series [4]; “soluble” in [5]; “soluble” in series [6]; “soluble” in series [7]; “Insoluble” in [8]; “soluble” in series [9]. The fraction unbound at 20 ug/ml in [10] is 0.63.

Turning to `CC(C)Cc1ccc(C(C)C(=O)OCC(O)CO)cc1` (stereo unspecified), in series [1], the Drug metabolism result is on record as “Not Active”. The half-life in series [2] amounted to 2.1 h; in series [3], 0.483 h. Further, the solubility entry is “soluble” in series [4]; “soluble” in [5]; “soluble” in series [6]; “soluble” in series [7]; “Insoluble” in series [8]; “soluble” in series [9]. In series [10], the fraction unbound at 20 ug/ml is 0.77.

In the case of `COC(=O)C(CC(C)C)NC(=O)C(C)c1ccc(CC(C)C)cc1` (stereo unspecified), the Drug metabolism entry in series [1] is “Not Active”. Besides, the results for the half-life in [2] and in series [3] were 3.16 h and 0.883 h, respectively. In addition, the solubility result is listed as “soluble” in series [4]; “soluble” in series [5]; “soluble” in series [6]; “soluble” in series [7]; “Insoluble” in series [8]; “soluble” in series [9]. Also, the fraction unbound at 20 ug/ml in [10] was 0.49.

On to `CC(C)Cc1ccc(C(C)C(=O)OC(C)C)cc1` (stereo unspecified), for which, in series [1], the Drug metabolism result was “Not Active”. The half-life in [2] was determined as 2.1 h; in series [3], 0.65 h. Besides, the solubility result is listed as “soluble” in [4]; “soluble” in series [5]; “soluble” in series [6]; “soluble” in series [7]; “Insoluble” in series [8]; “soluble” in series [9]. Moreover, in series [10], the fraction unbound at 20 ug/ml was 0.35.

On to `COC(=O)C(C)NC(=O)C(C)c1ccc(CC(C)C)cc1` (stereo unspecified), for which the Drug metabolism entry in [1] was “Not Active”. Also, the half-life came out at 2.58 h in series [2] and 0.883 h in [3]. Also, the solubility entry in series [4] is on record as “soluble”; in series [5], “soluble”; in series [6], “soluble”; in [7], “soluble”; in series [8], “Insoluble”; in series [9] it was “soluble”. Moreover, the fraction unbound at 20 ug/ml in [10] was 0.64.

For the molecule `COC(=O)CNC(=O)C(C)c1ccc(CC(C)C)cc1` (stereo unspecified), in series [1], the Drug metabolism entry is recorded as “Not Active”. Further, the half-life worked out at 2.58 h in series [2] and 0.883 h in [3]. The solubility entry in series [4] was “soluble”; in series [5], “soluble”; in series [6], “soluble”; in series [7], “soluble”; in [8] it was “Insoluble”; in [9], “soluble”. Moreover, in series [10], the fraction unbound at 20 ug/ml was 0.76.

`COC(=O)C(Cc1ccccc1)NC(=O)C(C)c1ccc(CC(C)C)cc1` (stereo unspecified): the Drug metabolism result in [1] was “Not Active”. Also, the half-life in series [2] worked out at 2.97 h; in [3] it was 0.883 h. Besides, the solubility entry was “soluble” in series [4]; “soluble” in series [5]; “soluble” in series [6]; “soluble” in series [7]; “Insoluble” in series [8]; “soluble” in series [9]. In [10], the fraction unbound at 20 ug/ml was 0.53.

As for `CCC(C)OC(=O)C(C)c1ccc(CC(C)C)cc1` (stereo unspecified), the Drug metabolism entry in series [1] is listed as “Not Active”. Besides, the half-life is 2.1 h in series [2] and 0.65 h in series [3]. Moreover, the solubility result in [4] was “soluble”; in series [5], “soluble”; in [6], “soluble”; in series [7] it was “soluble”; in series [8], “Insoluble”; in series [9] it was “soluble”. The fraction unbound at 20 ug/ml in series [10] is 0.33.

Turning to `COC(=O)C(NC(=O)C(C)c1ccc(CC(C)C)cc1)C(C)C` (stereo unspecified), the Drug metabolism entry in [1] is recorded as “Not Active”. For the same molecule, the half-life in series [2] turned out to be 3.3 h; in series [3], 0.883 h. In addition, the solubility entry was “soluble” in [4]; “soluble” in series [5]; “soluble” in series [6]; “soluble” in [7]; “Insoluble” in series [8]; “soluble” in series [9]. Besides, the fraction unbound at 20 ug/ml in series [10] is 0.55.

For the molecule `CC(C)Cc1ccc([C@H](C)C(=O)O)cc1` [DEXIBUPROFEN], the solubility result in series [11] is reported as “soluble”; in series [12], “soluble”; in series [13], “soluble”; in series [14], “soluble”; in [15] it was “Insoluble”; in [16], “soluble”.

Consider `CCCCOC(=O)C(C)c1ccc(CC(C)C)cc1` (stereo unspecified), for which the Drug metabolism result in series [1] is given as “Not Active”. For the same molecule, the half-life in series [2] is 2.1 h; in series [3] it was 0.483 h. Also, the solubility result is recorded as “soluble” in series [4]; “soluble” in series [5]; “soluble” in series [6]; “soluble” in series [7]; “Insoluble” in series [8]; “soluble” in [9]. Besides, the fraction unbound at 20 ug/ml in series [10] was 0.65.

The record behind these values is ChEMBL document CHEMBL3046468, “Synthesis, characterization and in vitro hydrolysis studies of ester and amide prodrugs of dexibuprofen” (Med Chem Res, 2012).
